Results: US10689378B2, “Triazolopyridine compounds and uses thereof” (Novartis AG, priority 2016, dated 2020)
pIC50: −log10 of the molar value. Like-named read-outs stand apart in the source and are kept apart here.

How the values were obtained:
EED (1-441)-His protein = biological target: T1, EED (1-441)-His protein (Homo sapiens, UniProt O75530); experiment: EED-H3K27Me3 peptide competition binding assay by AlphaScreen; details: read-out: (a) IC50 EED Alphascreen binding Qualified
T1 construct: 30 nM EED (1-441)-His protein
Method in brief: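 Serially diluted compound (12 points, 3-fold) incubated 20 min with 30 nM EED(1-441)-His and 15 nM biotin-H3K27Me3(19-33) peptide in 25 mM HEPES pH 8, 0.02% Tween-20, 0.5% BSA. Ni-chelate acceptor/streptavidin donor beads (10 μg/mL each) added, 1 h rt dark; 615 nm emission normalized to controls, dose-response fit for IC50.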

[1] = test system: H3K27 methylation in G401 cell; experiment: ELISA (H3K27 methylation) assay in G401 cells; assay type: cell-based, human; details: Homo sapiens
Method in brief: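 G401 cells treated 48 h with 3-fold dilutions (8 or 12 points, top 20 μM). Acid-extracted histones probed by ELISA for H3K27me3 or H3K27me2 with ECL readout, normalized to total H3. Percent inhibition versus DMSO fitted to dose-response curve for IC50.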

[2] = EED-H3K27Me3 peptide competition, AlphaScreen
[3] = G-401, H3K27 methylation ELISA, read-out: (c) IC50 ELISA Qualified
[4] = G-401, read-out: (c) IC50 ELISA Qualified

T1 sequence (O75530 whole entry): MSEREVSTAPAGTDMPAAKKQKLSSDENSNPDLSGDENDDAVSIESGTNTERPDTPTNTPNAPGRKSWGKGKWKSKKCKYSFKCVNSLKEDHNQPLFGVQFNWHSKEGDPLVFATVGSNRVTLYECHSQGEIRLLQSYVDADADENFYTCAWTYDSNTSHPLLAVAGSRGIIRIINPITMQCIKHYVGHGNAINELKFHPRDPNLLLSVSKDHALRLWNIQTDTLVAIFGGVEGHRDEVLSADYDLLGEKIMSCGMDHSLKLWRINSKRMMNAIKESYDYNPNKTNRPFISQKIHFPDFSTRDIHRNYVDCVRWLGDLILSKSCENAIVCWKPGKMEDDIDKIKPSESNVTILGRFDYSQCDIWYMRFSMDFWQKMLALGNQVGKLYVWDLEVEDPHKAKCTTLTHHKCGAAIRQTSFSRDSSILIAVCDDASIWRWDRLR

Row | Structure (SMILES) | pIC50 (EED (1-441)-His protein; [2]) | pIC50 [1, 3] | pIC50 (EED (1-441)-His protein) | pIC50 [1, 4]
1 | COc1cccc(F)c1CNc1ccc(-c2cnccc2C(F)(F)F)c2nncn12 [Example 202, N-(2-fluoro-6-methoxybenzyl)-8-(4-(trifluoromethyl)pyridin-3-yl)-[1,2,4]triazolo[4,3-a] pyridin-5-amine] | 6.57 | 6.50 |  | 
2 | COc1cccc(F)c1CNc1ccc(-c2cncc(OCCS(C)(=O)=O)c2)c2nncn12 [Example 204, N-(2-fluoro-6-methoxybenzyl)-8-(5-(2-(methylsulfonyl)ethoxy)pyridin-3-yl)-[1,2,4]triazolo[4,3-a] pyridin-5-amine] | 6.84 | 7.02 |  | 
3 | COc1cccc(F)c1CNc1ccc(-c2cc(F)c(N)cc2F)c2nncn12 [Example 208, 8-(4-amino-2,5-difluorophenyl)-N-(2-fluoro-6-methoxybenzyl)-[1,2,4]triazolo[4,3-a]pyridin-5-amine] | 6.98 | 6.86 |  | 
4 | COc1cccc(F)c1CNc1ccc(-c2ccc(C#N)cc2C)c2nncn12 [Example 209, 4-(5-((2-fluoro-6-methoxybenzyl)amino)-[1,2,4]triazolo[4,3-a]pyridin-8-yl)-3-methylbenzonitrile] | 6.92 | 7.12 |  | 
5 | COc1cccc(F)c1CNc1ccc(-c2ccccc2C)c2nncn12 [Example 211, N-(2-fluoro-6-methoxybenzyl)-8-(o-tolyl)-[1,2,4] triazolo[4,3-a]pyridin-5-amine] | 6.99 | 6.82 |  | 
6 | COc1cccc(F)c1CNc1ccc(-c2ccc(Cl)cc2Cl)c2nncn12 [Example 224, 8-(2,4-dichlorophenyl)-N-(2-fluoro-6-methoxybenzyl)-[1,2,4]triazolo[4,3-a]pyridin-5-amine] | 6.86 | 6.66 |  | 
7 | COc1ccc(F)c(F)c1CNc1ccc(-c2cccnc2)c2nncn12 [Example 242, N-(2,3-difluoro-6-methoxybenzyl)-8-(pyridin-3-yl)-[1,2,4]triazolo[4,3-a]pyridin-5-amine] | 6.75 | 6.34 |  | 
8 | COc1ccc(F)c(F)c1CNc1ccc(-c2ccncc2)c2nncn12 [Example 243, N-(2,3-difluoro-6-methoxybenzyl)-8-(pyridin-4-yl)-[1,2,4]triazolo[4,3-a]pyridin-5-amine] | 6.48 | 6.46 |  | 
9 | COc1ccc(F)c(F)c1CNc1ccc(-c2ccc(S(C)(=O)=O)cc2)c2nncn12 [Example 244, N-(2,3-difluoro-6-methoxybenzyl)-8-(4-(methylsulfonyl)phenyl)-[1,2,4]triazolo[4,3-a]pyridin-5-amine] | 6.64 | 6.56 |  | 
10 | CCc1ccccc1-c1ccc(NCc2c(F)cccc2OC)n2cnnc12 [Example 254, 8-(2-ethylphenyl)-N-(2-fluoro-6-methoxybenzyl)-[1,2,4]triazolo[4,3-a]pyridin-5-amine] | 6.58 | 6.12 |  | 
11 | COc1cccc(F)c1CNc1ccc(-c2cn(C(C)C)nc2C(F)(F)F)c2nncn12 [Example 255, N-(2-fluoro-6-methoxybenzyl)-8-(1-isopropyl-3-(trifluoromethyl)-1H-pyrazol-4-yl)-[1,2,4]triazolo[4,3-a] pyridin-5-amine] | 6.72 | 7.11 |  | 
12 | COc1cccc(F)c1CNc1ccc(-c2ccccc2C(C)C)c2nncn12 [Example 257, N-(2-fluoro-6-methoxybenzyl)-8-(2-isopropylphenyl)-[1,2,4]triazolo[4,3-a] pyridin-5-amine] | 6.04 | ≤ 4.20 |  | 
13 | COc1cccc(F)c1CNc1ccc(-c2cnc(N3CCOCC3)nc2C)c2nncn12 [Example 261, N-(2-fluoro-6-methoxybenzyl)-8-(4-methyl-2-morpholinopyrimidin-5-yl)-[1,2,4]triazolo[4,3-a]pyridin-5-amine] | 7.75 | 8.11 |  | 
14 | COc1cccc(F)c1CNc1ccc(-c2cnc(N3CCOCC3)cc2C)c2nncn12 [Example 262, N-(2-fluoro-6-methoxybenzyl)-8-(4-methyl-6-morpholinopyridin-3-yl)-[1,2,4]triazolo[4,3-a]pyridin-5-amine] | 7.91 | 7.81 |  | 
15 | COc1cccc(F)c1CNc1ccc(-c2ccc(Cl)nc2C)c2nncn12 [Example 263, 8-(6-chloro-2-methylpyridin-3-yl)-N-(2-fluoro-6-methoxybenzyl)-[1,2,4]triazolo[4,3-a] pyridin-5-amine] | 7.77 | 7.81 |  | 
16 | COc1cccc(F)c1CNc1ccc(-c2ccnc(C(F)(F)F)c2)c2nncn12 [Example 264, N-(2-fluoro-6-methoxybenzyl)-8-(2-(trifluoromethyl)pyridin-4-yl)-[1,2,4]triazolo[4,3-a] pyridin-5-amine] | 7.83 | 7.83 |  | 

Row | Structure (SMILES) | pIC50 (EED (1-441)-His protein; [2]) | pIC50 [1, 3] | pIC50 (EED (1-441)-His protein) | pIC50 [1, 4]
17 | COc1cc(CNc2ccc(-c3cccnc3C)c3nncn23)c(F)cc1F [Example 285, N-(2,4-difluoro-5-methoxybenzyl)-8-(2-methylpyridin-3-yl)-[1,2,4]triazolo[4,3-a] pyridin-5-amine] | 6.75 | 6.95 |  | 
18 | COc1ccc(F)c(F)c1CNc1ccc(-c2cccnc2C)c2nncn12 [Example 286, N-(2,3-difluoro-6-methoxybenzyl)-8-(2-methylpyridin-3-yl)-[1,2,4]triazolo[4,3-a] pyridin-5-amine] | 6.95 | 6.94 |  | 
19 | COc1ccc(F)c(CNc2ccc(-c3cccnc3C)c3nncn23)c1 [Example 291, N-(2-fluoro-5-methoxybenzyl)-8-(2-methylpyridin-3-yl)-[1,2,4]triazolo[4,3-a] pyridin-5-amine] | 6.74 | 7.07 |  | 
20 | CCc1ccncc1-c1ccc(NCc2c(F)cc(F)cc2OC)n2cnnc12 [Example 307, N-(2,4-difluoro-6-methoxybenzyl)-8-(4-ethylpyridin-3-yl)-[1,2,4]triazolo[4,3-a] pyridin-5-amine] | 6.69 | 6.65 |  | 
21 | COc1cccc(F)c1CNc1c(F)cc(-c2cccnc2C)c2nncn12 [Example 311, 6-fluoro-N-(2-fluoro-6-methoxybenzyl)-4-(2-methylpyridin-3-yl)-[1,2,4] triazolo[4,3-a]pyridin-7-amine] | 6.38 | 6.08 |  | 
22 | COc1cc(C)c(-c2ccc(NCc3c(F)cc(F)cc3OC)n3cnnc23)cn1 [Example 318, N-(2,4-difluoro-6-methoxybenzyl)-8-(6-methoxy-4-methylpyridin-3-yl)-[1,2,4] triazolo[4,3-a]pyridin-5-amine] | 7.15 | 7.15 |  | 
23 | COc1cc(F)cc(F)c1CNc1c(F)cc(-c2cccnc2C)c2nncn12 [Example 320, N-(2,4-difluoro-6-methoxybenzyl)-6-fluoro-8-(2-methylpyridin-3-yl)-[1,2,4]triazolo [4,3-a]pyridin-5-amine] | 6.37 | 6.36 |  | 
24 | COc1cc(F)cc(F)c1CNc1c(F)cc(-c2cnc(C)nc2C)c2nncn12 [Example 321, N-(2,4-difluoro-6-methoxybenzyl)-8-(2,4-dimethylpyrimidin-5-yl)-6-fluoro-[1,2,4]triazolo[4,3-a]pyridin-5-amine] | 5.58 | 5.81 |  | 
25 | Cc1cccc(F)c1CNc1ccc(-c2cccnc2C)c2nncn12 [Example 331, N-(2-fluoro-6-methylbenzyl)-8-(2-methylpyridin-3-yl)-[1,2,4]triazolo[4,3-a] pyridin-5-amine] | 6.34 | 6.28 |  | 
26 | COc1cccc(F)c1CNc1ccc(-c2c(C)ccnc2C)c2nncn12 [Example 346, 8-(2,4-dimethylpyridin-3-yl)-N-(2-fluoro-6-methoxybenzyl)-[1,2,4]triazolo[4,3-a] pyridin-5-amine] |  |  | 6.85 | 6.58
27 | COc1cccnc1CNc1ccc(-c2cccnc2C)c2nncn12 [Example 347, N-((3-methoxypyridin-2-yl)methyl)-8-(2-methylpyridin-3-yl)-[1,2,4]triazolo[4,3-a] pyridin-5-amine] |  |  | 6.10 | 6.11
28 | COc1cnccc1CNc1ccc(-c2cccnc2C)c2nncn12 [Example 360, N-((3-methoxypyridin-4-yl)methyl)-8-(2-methylpyridin-3-yl)-[1,2,4]triazolo[4,3-a] pyridin-5-amine] |  |  | 5.39 | 5.52
29 | COc1cccc(CNc2ccc(-c3cccnc3C)c3nncn23)n1 [Example 364, N-((6-methoxypyridin-2-yl)methyl)-8-(2-methylpyridin-3-yl)-[1,2,4]triazolo[4,3-a] pyridin-5-amine] |  |  | 6.92 | 7.09
30 | COc1cccc(F)c1CNc1ccc(-c2cn(C)c(C)n2)c2nncn12 [Example 365, 8-(1,2-dimethyl-1H-imidazol-4-yl)-N-(2-fluoro-6-methoxybenzyl)-[1,2,4] triazolo[4,3-a]pyridin-5-amine] |  |  | 6.70 | 6.56
31 | COc1nccc(N)c1CNc1ccc(-c2cccnc2C)c2nncn12 [Example 371, N-((4-amino-2-methoxypyridin-3-yl)methyl)-8-(2-methylpyridin-3-yl)-[1,2,4] triazolo[4,3-a]pyridin-5-amine] |  |  | 6.99 | 7.03
